The values below come from patent US20250213700A1, “COMPOUNDS, COMPOSITIONS, AND METHODS FOR CELL-SPECIFIC PHARMACOLOGY” (Duke University, priority 2022, published 2025).

The target in data set [1] is T1, HTP on retinal ganglion cells (Rhodococcus rhodochrous, UniProt P0A3G2, A155T/A167V/A172T/A224E/C128F/C176G/D78G/E160K/E257K/H272N/K175M/K195N/L47V/L88M/N227D/S58T/T264A/Y273L/Y87F).
T1 construct: SSnlg signal peptide (residues 1-49 of mouse neuroligin-1) (N); Thy1 GPI anchor signal (C); expressed in transfected cells; host or cells: mouse neurons transduced in vivo with AAV-DIO-+HTPGPI (D1-Cre dorsal striatum; PV::cre retinal ganglion cells)
T1 sequence (P0A3G2 other isoform, or with tags, fused parts or gaps with the stated changes): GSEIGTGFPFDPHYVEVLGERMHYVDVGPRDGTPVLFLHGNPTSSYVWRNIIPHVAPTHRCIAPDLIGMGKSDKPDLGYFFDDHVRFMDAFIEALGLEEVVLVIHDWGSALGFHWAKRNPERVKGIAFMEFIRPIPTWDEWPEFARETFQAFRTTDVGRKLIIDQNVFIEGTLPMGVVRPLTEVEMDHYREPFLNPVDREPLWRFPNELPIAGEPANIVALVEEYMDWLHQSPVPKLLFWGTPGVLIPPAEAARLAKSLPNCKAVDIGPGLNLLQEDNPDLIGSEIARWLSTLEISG
Kind of data set: tracer dye capture on retinal ganglion cells. It counts as cell-based, mouse. The note with it: 30 nM, 15 min, after washout. The method, then:
FIG. 6A-6C show bidirectional manipulation of AMPAR and GABAAR neurotransmission. (FIG. 6A) Viral strategy (top panel). Intravitreal AAV7m8-DIO-HTPGPI-2A-dTomao achieves retinal ganglion cell (RGC) expression in PV::cre mice. Experimental overview (second panel from the top to bottom panel). Top: whole retina; synaptic current is evoked (stim) and recorded (voltage-clamp of dTomato+ RGC), with ionic and pharmaceutical conditions chosen to isolate the AMPAR or GABAAR. A 10 min baseline is followed by 15 min application of 300 nM Rx^DART.2+30 nM Alexa^647.1DART.2. […] (FIG. 6B) CMPDA.2^DART.2 (left). Electropositive spacer (PDB 3RNN). […] EPSC waveform before and after CMPDA.2^DART.2. AMPAR structural model (middle) (composite of PDB 5WEO, 3RNN, and 1FTL). Cylinder depicts cell membrane. CMPDA.2^DART.2 binds within an inter-clamshell interface (2 per receptor). YM90K.1^DART.2 binds the orthosteric glutamate binding site in the clamshell (4 per receptor). YM90K.1^DART.2 (right). […]
Next it was asked whether bidirectional modulation of the AMPAR and GABAAR could be achieved in the same cell type. A preparation was focused on in which electrophysiology is the primary readout, enabling resolution of the amplitude and millisecond time-constant of synaptic transmission. […] A whole-mount retina was later prepared and evoked synaptic currents were measured under conditions that isolate the AMPAR or GABAAR. […]

The subject of data set [2] is +HTP somatostatin interneurons and -HTP neurons of V1 visual cortex. Kind of data set: 2P calcium imaging of V1 visual responses after contralateral ventricle infusion, SOM-Cre mice. In kind it is in vivo, mouse. The settings on record: infused with YM90K.1DART.2 into contralateral ventricle, widefield fluorescence. The method, then: Top left: Mice expressing pan-neuronal GCaMP8s with SOM-specific ^+HTP. Window over V1. DART delivered via the contralateral ventricle. Bottom left: In-vivo and ex-vivo expression and dye capture. Right: Mice presented oriented visual gratings, 2P Ca^2+ imaging obtained before and 5-6 hr after infusion of 0.3 nmole Alexa647.1^DART.2+3 nmole YM90K.1^DART.2 (2 μL volume) into the contralateral ventricle.
Next, it was examined whether this strategy could deliver a pharmacologically active DART to genetically defined cells. A surgery was performed in which AAV DIO +HTPGPI was injected into the V1 visual cortex of SOM-Cre mice for cell-specific expression in somatostatin interneurons, along with a co-injected AAV-GCaMP8s virus for pan-neuronal neural activity monitoring. A cannula was implanted in the contralateral ventricle, and glass window over V1. Following surgical recovery, a mixture of YM90K.1DART.2+Alexa647.1DART.2 was infused. […] To test for pharmacological effects, 2P calcium imaging of +HTP and −HTP was performed while mice were presented with oriented gratings. A reduction in +HTP visual response was apparent 4 hours post DART infusion. This reduction persisted even after 24 hours post infusion.

A short description of data set [3]: biodistribution to cortex after lateral ventricle infusion (wide-field fluorescence through cranial window). The note with it: -HTP mice, high dose into lateral ventricle. In kind it is in vivo, mouse. From the text: To maintain control of the ambient drug concentration in vivo, thus far a cannula was implanted in close proximity to the desired brain target. (FIG. 5) However, optical and electrical brain interfaces often occupy this precious real estate. For example, cranial window technologies, in which a portion of the skull is replaced with a glass window, have become instrumental in studying the neocortex. Application of drugs through a glass window remains an unsolved problem, as access ports will generally close due to scarring, and temporary removal of the window can compromise the preparation. Thus, it was asked whether DART.2 could enable dosing from a distance via the cerebrospinal fluid (CSF). Delivery via the cisterna magna was first explored, given reports that dextran tracers delivered at this site achieve rapid biodistribution throughout the neocortex parenchyma. Although there was some preliminary success with this approach, it was found difficult to establish mechanically stable cannulation of the cisterna magna, owing to its position below the base of the skull and to the mobility of the neck muscles. […] Following surgical recovery, a high dose of Alexa647.1DART.2 was fused into the LV (dose, volume) and monitored wide-field fluorescence intensity through the cranial window. Fluorescence intensity peaked 2 hr later, and largely cleared by 24 hours (i2055,i2056). […]

Data set [4] addresses T2, HTP in D1 cells of left dorsal striatum (Rhodococcus rhodochrous, UniProt P0A3G2, A155T/A167V/A172T/A224E/C128F/C176G/D78G/E160K/E257K/H272N/K175M/K195N/L47V/L88M/N227D/S58T/T264A/Y273L/Y87F).
T2 construct: SSnlg signal peptide (residues 1-49 of mouse neuroligin-1) (N); Thy1 GPI anchor signal (C); expressed in transfected cells; host or cells: mouse neurons transduced in vivo with AAV-DIO-+HTPGPI (D1-Cre dorsal striatum; PV::cre retinal ganglion cells)
Kind of data set: histology of tracer dye capture in dorsal striatum. It counts as in vivo, mouse. The settings on record: 3 µM dye+30 µM drug, histology 24 hr later. As to the method:
FIG. 3A-3F show quantitative engagement of the DART.2 platform. (FIG. 3A) Mice with ^+HTP or ^ddHTP in D1 cells of left dorsal striatum. Open field (1 hr) before and after Alexa488.1^DART.2+YM90K.1^DART.2 (3 µM dye+30 µM drug, 1 μL in 10 min). Histology performed 24 hr later. Left, dTomato expression and Alexa488.1^DART.2 capture from a ^+HTP mouse. […] Right, open-field turning vs dye capture. […] Dye capture can be used as a behavior-independent inclusion criterion (shading), allowing exclusion of 4 ^+HTP mice in this dataset. (FIG. 3B) Older technology lacked tracer^DART. Here, an estimate of technical success with a non-DART dye (fluorogold) was attempted and a numerical algorithm dye-virus overlap was estimated. […] (FIG. 3C and FIG. 3D) Characterization in live mice expressing HTP in dSPNs of the left dorsal striatum. Alexa^DART.2 co-infused with YM90^KDART.2 ligand provided permanent marker of drug capture, tight correspondence between histology and behavioral potency, and 3-fold increase in behavioral potency in comparison to its predecessor. (FIG. 3E and FIG. 3F) YM90^KDART.1 in live mice for comparison with above.
Histology. […] Images were analyzed for pixel intensity using MATLAB.
These advances were combined in a mouse locomotor assay. […] Mice were perfused for histology 24 hrs later, and quantitative measurement of the integrated Alexa capture over the dorsal striatum was performed. […]

T2 sequence (P0A3G2 other isoform, or with tags, fused parts or gaps with the stated changes): as above

As to `COc1cc(CCCCl)ccc1CCOCCNC(=O)c1ccc(CNC(=O)CCOCCOCCOCCOCCOCCOCCOCCOCCOCCOCCOCCOCCOCCOCCOCCOCCOCCOCCOCCOCCOCCOCCOCCOCCOCCOCCOCCOCCOCCOCCOCCOCCOCCOCCOCCOCCn2cc(COCCOCCOCCOCCOCCOCCNC(=O)CCCCCC3(C)\C(=C/C=C/C=C/C4=[N+](CCCS(=O)(=O)O)c5ccc(S(=O)(=O)[O-])cc5C4(C)C)N(CCCS(=O)(=O)O)c4ccc(S(=O)(=O)O)cc43)nn2)cc1` (stereo not drawn) [Alexa647.1DART.2], in data set [1], the “dye capture on +HTP cells” value is recorded as “robust capture” and the “dye capture on ddHTP or -HTP cells” value is “no detectible capture”. The “time for DART capture to reach steady state” value in data set [2] was 4 to 8 h. In data set [3], the “time by which fluorescence largely cleared” value was at most 24 h and the “time to peak fluorescence intensity over cortex” value is 2 h.

On to `COc1cc(CCCCl)ccc1CCOCCNC(=O)c1ccc(CNC(=O)CCOCCOCCOCCOCCOCCOCCOCCOCCOCCOCCOCCOCCOCCOCCOCCOCCOCCOCCOCCOCCOCCOCCOCCOCCOCCOCCOCCOCCOCCOCCOCCOCCOCCOCCOCCOCCn2cc(CNC(=O)c3ccc(-c4c5ccc(=N)c(S(=O)(=O)O)c-5oc5c(S(=O)(=O)O)c(N)ccc45)c(C(=O)O)c3)nn2)cc1` [Alexa488.1^DART.2, 6-amino-9-(2-carboxy-4-(((1-(1-(4-((2-(4-(3-chloropropyl)-2-methoxyphenethoxy)ethyl)carbamoyl)phenyl)-3-oxo-6,9, 12, 15, 18, 21, 24, 27, 30, 33, 36, 39, 42, 45, 48, 51, 54, 57, 60, 63, 66, 69, 72, 75, 78, 81, 84, 87, 90, 93, 96, 99, 102, 105, 108, 111-hexatriacontaoxa-2-azatridecahectan-113-yl)-1H-1,2,3-triazol-4-yl)methyl)carbamoyl)phenyl)-3-iminio-5-sulfo-3H-xanthene-4-sulfonate], for which the “dye capture, ddHTP mice” value in data set [4] is listed as “No dye capture detected”.
